Source: article PMC5740381 (Antimicrobial Agents and Chemotherapy, 2017)
Read-outs that look alike come from different tables or passages of the source.

What was measured:
Assay type in all cases: cell-based, Hepatitis C virus
[1] = tested on: HCV subgenomic stable replicon GT6e; assay: microbe, parasite or virus in culture; conditions: 0% human plasma, read-out: Mean EC50 ± SD
From the text: (§1) Five of these nine cell lines have been described previously, including those transfected with genotypes 1a H77, 1b Con1, 3a, 4a, and 6a ([28]). […] The genotype 2b and 6e NS3 sequences were each synthetically constructed based on a consensus sequence derived from the alignment of 15 genotype 2b and 4 genotype 6e sequences, respectively. All replicon constructs were bicistronic subgenomic replicons similar to those described by Bartenschlager and coworkers, and the replicon cell lines were generated by introducing these constructs into cells of an Huh-7 human hepatoma-derived cell line ([50]). The inhibitory effect of the PIs on HCV replication in replicon cells was determined in Dulbecco's modified Eagle medium containing 5% fetal bovine serum with or without 40% human plasma (Bioreclamation, Westbury, NY). The EC50s were determined using nonlinear regression curve fitting as described previously ([33]).

[2] = tested on: HCV subgenomic stable replicon GT3a; assay: microbe, parasite or virus in culture; conditions: 0% human plasma, read-out: Mean EC50 ± SD
From the text: as §1

[3] = tested on: HCV subgenomic stable replicon GT6a; assay: Stable HCV replicon luciferase assay in Huh-7 cells; conditions: 0% human plasma, read-out: Mean EC50 ± SD
From the text: (§2) . Five of these nine cell lines have been described previously, including those transfected with genotypes 1a H77, 1b Con1, 3a, 4a, and 6a ([28]). The other four cell lines were established by transfecting cells with a nonchimeric genotype 2a JFH-1 replicon (GenBank accession number AB047639), two genotype 2a JFH-1 chimeric replicons containing either a genotype 2b NS3 protease domain (N-terminal 251 amino acids) or a sequence encoding full-length NS3 through the first 39 amino acids of NS5B from genotype 5a (strain SA13), and one chimeric replicon with a genotype 1b Con1 backbone containing full-length NS3 and NS4A sequences from genotype 6e. The genotype 2b and 6e NS3 sequences were each synthetically constructed based on a consensus sequence derived from the alignment of 15 genotype 2b and 4 genotype 6e sequences, respectively. All replicon constructs were bicistronic subgenomic replicons similar to those described by Bartenschlager and coworkers, and the replicon cell lines were generated by introducing these constructs into cells of an Huh-7 human hepatoma-derived cell line ([50]). The inhibitory effect of the PIs on HCV replication in replicon cells was determined in Dulbecco's modified Eagle medium containing 5% fetal bovine serum with or without 40% human plasma (Bioreclamation, Westbury, NY). The EC50s were determined using nonlinear regression curve fitting as described previously ([33]).

[4] = tested on: HCV subgenomic stable replicon GT4a; assay: as above; conditions: 0% human plasma, read-out: Mean EC50 ± SD
From the text: as §2

HCV genotype 1b replicon = assay: Transient replicon assay with engineered substitutions; conditions: read-out: Mean EC50 ± SD
Description: (§3) Mutagenesis was performed using a Change-IT multiple-mutation site-directed mutagenesis kit (USB, Cleveland, OH) or by cloning a synthesized DNA fragment encoding the amino acid substitution(s). The genotype 1a and 1b replicon shuttle vectors used for the introduction of the substitutions of interest in the NS3, NS5A, or NS5B gene for transient-transfection assays have been described previously ([28], [33]). The replicon shuttle vectors used for the introduction of substitutions in NS3 genes from other genotypes were similar to the stable replicon cell line constructs described above, except for the absence of the neo gene. After mutagenesis, the plasmids were linearized and RNA was transcribed and then used to transfect Huh-7 cells. Inhibition of HCV replication by the HCV inhibitors was measured by luciferase assay, as described above. Replication efficiency was calculated as a percentage of wild-type replication, as described previously ([28]).

HCV genotype 5a replicon = assay: as above; conditions: 5a wild type, transient transfection; read-out: Mean EC50 ± SD
Description: as §3

HCV genotype 1a replicon = assay: as above; conditions: read-out: Mean EC50 ± SD
Description: as §3

HCV genotype 2b replicon = assay: as above; conditions: read-out: Mean EC50 ± SD
Description: as §3

HCV genotype 6a replicon = assay: as above; conditions: read-out: Mean EC50 ± SD
Description: as §3

HCV genotype 2a replicon = assay: as above; conditions: read-out: Mean EC50 ± SD
Description: as §3

HCV genotype 4d replicon = assay: as above; conditions: read-out: Mean EC50 ± SD
Description: as §3

HCV genotype 4a replicon = assay: as above; conditions: read-out: Mean EC50 ± SD
Description: as §3

HCV genotype 3a replicon = assay: as above; conditions: read-out: Mean EC50 ± SD
Description: as §3

SMILES: C=C[C@@H]1C[C@]1(NC(=O)[C@@H]1C[C@@H]2CN1C(=O)[C@H](C(C)(C)C)NC(=O)O[C@@H]1C[C@H]1CCCCCc1nc3ccc(OC)cc3nc1O2)C(=O)NS(=O)(=O)C1CC1 [Grazoprevir]
- EC50 [1]: 0.25 ± 0.01 nM
- EC50 [2]: 83 ± 18 nM
- EC50 [3]: 0.89 ± 0.32 nM
- EC50 [4]: 1.2 ± 0.31 nM
- EC50 (HCV genotype 1b replicon; 1b NS3 A156T): 39 ± 4.3 nM
- EC50 (HCV genotype 1b replicon; 1b NS3 A156V): 68 ± 8.2 nM
- EC50 (HCV genotype 1b replicon; 1b NS3 D168A): 8.5 ± 0.37 nM
- EC50 (HCV genotype 1b replicon; 1b NS3 D168E): 0.78 ± 0.05 nM
- EC50 (HCV genotype 1b replicon; 1b NS3 D168V): 4.1 ± 0.11 nM
- EC50 (HCV genotype 1b replicon; 1b wild type, transient transfection): 0.19 ± 0.05 nM
- EC50 (HCV genotype 5a replicon): 0.06 ± 0.02 nM
- EC50 (HCV genotype 1a replicon; 1a NS3 A156T): 92 ± 6 nM
- EC50 (HCV genotype 1a replicon; 1a NS3 D168E): 4.6 ± 0.66 nM
- EC50 (HCV genotype 1a replicon; 1a NS3 D168V): 30 ± 13 nM
- EC50 (HCV genotype 1a replicon; 1a NS3 F43L): 0.19 ± 0.05 nM
- EC50 (HCV genotype 1a replicon; 1a NS3 Q80K): 0.25 ± 0.09 nM
- EC50 (HCV genotype 1a replicon; 1a NS3 R155K): 0.59 ± 0.19 nM
- EC50 (HCV genotype 1a replicon; 1a NS3 V36M): 0.27 ± 0.06 nM
- EC50 (HCV genotype 1a replicon; 1a NS3 V55I): 0.1 ± 0.02 nM
- EC50 (HCV genotype 1a replicon; 1a NS3 Y56H): 2.2 ± 0.73 nM
- EC50 (HCV genotype 1a replicon; 1a wild type, transient transfection): 0.14 ± 0.06 nM
- EC50 (HCV genotype 2b replicon; 2b NS3 A156T): 1560 nM
- EC50 (HCV genotype 2b replicon; 2b NS3 A156V): 2890 nM
- EC50 (HCV genotype 2b replicon; 2b NS3 D168A): 347 ± 113 nM
- EC50 (HCV genotype 2b replicon; 2b NS3 D168E): 35 ± 6 nM
- EC50 (HCV genotype 2b replicon; 2b NS3 D168V): 88 ± 19 nM
- EC50 (HCV genotype 2b replicon; 2b wild type, transient transfection): 6.1 ± 1.3 nM
- EC50 (HCV genotype 6a replicon; 6a NS3 D168A): 103 ± 34 nM
- EC50 (HCV genotype 6a replicon; 6a NS3 D168H): 45 ± 4.1 nM
- EC50 (HCV genotype 6a replicon; 6a NS3 D168V): 24 ± 1.2 nM
- EC50 (HCV genotype 6a replicon; 6a wild type, transient transfection): 0.1 ± 0.02 nM
- EC50 (HCV genotype 2a replicon; 2a NS3 A156T): 1150 nM
- EC50 (HCV genotype 2a replicon; 2a NS3 A156V): 1960 nM
- EC50 (HCV genotype 2a replicon; 2a NS3 D168A): 139 ± 9.4 nM
- EC50 (HCV genotype 2a replicon; 2a NS3 D168E): 62 ± 10 nM
- EC50 (HCV genotype 2a replicon; 2a NS3 D168V): 24 ± 0.94 nM
- EC50 (HCV genotype 2a replicon; 2a wild type, transient transfection): 10.5 ± 1.4 nM
- EC50 (HCV genotype 4d replicon; 4d NS3 D168V): 2.5 ± 0.08 nM
- EC50 (HCV genotype 4d replicon; 4d wild type, transient transfection): 0.18 ± 0.01 nM
- EC50 (HCV genotype 4a replicon; 4a NS3 A156T): 296 ± 22 nM
- EC50 (HCV genotype 4a replicon; 4a NS3 A156V): 169 ± 27 nM
- EC50 (HCV genotype 4a replicon; 4a NS3 D168H): 25 ± 6.3 nM
- EC50 (HCV genotype 4a replicon; 4a NS3 D168V): 13 ± 1.1 nM
- EC50 (HCV genotype 4a replicon; 4a NS3 R155C): 2 ± 0.27 nM
- EC50 (HCV genotype 4a replicon; 4a wild type, transient transfection): 0.28 ± 0.04 nM
- EC50 (HCV genotype 3a replicon; 3a NS3 A156G): 614 ± 148 nM
- EC50 (HCV genotype 3a replicon; 3a NS3 Q168R): 165 ± 46 nM
- EC50 (HCV genotype 3a replicon; 3a wild type, transient transfection): 47 ± 14 nM
